Assay: xn = mol fraction of the nth substance listed

CCCCCOC(C)=O + ClC(Cl)Cl
303.15 K, 101.3 kPa
Conditions | viscosity [mPa·s]
x1 = 0.0995 | 0.5918
x1 = 0.2017 | 0.6667
x1 = 0.2998 | 0.725
x1 = 0.3984 | 0.7678
x1 = 0.5049 | 0.7991
x1 = 0.5912 | 0.8048
x1 = 0.7005 | 0.8002
x1 = 0.8153 | 0.7844
x1 = 0.8911 | 0.7722

CCCCCOC(C)=O + ClCCCl
303.15 K, 101.3 kPa
Conditions | viscosity [mPa·s]
x1 = 0.1052 | 0.7366
x1 = 0.196 | 0.7444
x1 = 0.303 | 0.7582
x1 = 0.4004 | 0.7651
x1 = 0.4924 | 0.7693
x1 = 0.5994 | 0.7716
x1 = 0.702 | 0.7686
x1 = 0.805 | 0.762
x1 = 0.8946 | 0.7597

CC1CCCO1 (centres undefined) + Clc1ccccc1
298.15 K, 101 kPa
Conditions | viscosity [mPa·s]
x2 = 0.0188 | 0.47
x2 = 0.0509 | 0.482
x2 = 0.103 | 0.501
x2 = 0.157 | 0.52
x2 = 0.2126 | 0.54
x2 = 0.2712 | 0.56
x2 = 0.3298 | 0.579
x2 = 0.3913 | 0.598
x2 = 0.4548 | 0.617
x2 = 0.5206 | 0.635
x2 = 0.5892 | 0.654
x2 = 0.6601 | 0.671
x2 = 0.7334 | 0.689
x2 = 0.8094 | 0.705
x2 = 0.889 | 0.722
x2 = 0.9713 | 0.737

CCOC(=O)CC + Clc1ccccc1
viscosity [mPa·s], 101.3 kPa
Conditions | 308.15 K | 318.15 K
x1 = 0.0485 | 0.647 | 0.598
x1 = 0.102 | 0.636 | 0.588
x1 = 0.1976 | 0.616 | 0.57
x1 = 0.307 | 0.594 | 0.55
x1 = 0.3981 | 0.576 | 0.534
x1 = 0.4981 | 0.557 | 0.517
x1 = 0.6116 | 0.535 | 0.498
x1 = 0.7034 | 0.519 | 0.483
x1 = 0.7992 | 0.501 | 0.467
x1 = 0.9 | 0.484 | 0.451
x1 = 0.9478 | 0.476 | 0.444

ClCC(Cl)Cl + N#CCc1ccccc1
Conditions | viscosity [mPa·s]
303.15 K, 101 kPa, x2 = 0.3463 | 1.365

C1CNCCN1.C1CNCCN1.C1CNCCN1.O=C(O)CC(O)(CC(=O)O)C(=O)O.O=C(O)CC(O)(CC(=O)O)C(=O)O + O
viscosity [mPa·s], 101.3 kPa
Conditions | 293.15 K | 303.15 K | 313.15 K
x1 = 0.000319 | 1.035 | 0.826 | 0.679
x1 = 0.000781 | 1.073 | 0.857 | 0.708
x1 = 0.000911 | 1.086 | 0.865 | 0.716
x1 = 0.00105 | 1.101 | 0.877 | 0.725
x1 = 0.00119 | 1.115 | 0.888 | 0.733
x1 = 0.00134 | 1.132 | 0.901 | 0.743
x1 = 0.00149 | 1.148 | 0.914 | 0.753
x1 = 0.00166 | 1.166 | 0.928 | 0.763
x1 = 0.00179 | 1.179 | 0.939 | 0.771
x1 = 0.001875 | 1.188 | 0.945 | 0.775
x1 = 0.002838 | 1.303 | 1.034 | 0.834

C=CCC[n+]1ccn(CC)c1.[Br-] + O
viscosity [mPa·s], 101.33 kPa
Conditions | x1 = 0.001149 | x1 = 0.001784 | x1 = 0.003604 | x1 = 0.005391 | x1 = 0.007164 | x1 = 0.008843
293.15 K | 1.038 | 1.055 | 1.095 | 1.132 | 1.168 | 1.206
298.15 K | 0.922 | 0.936 | 0.971 | 1.003 | 1.034 | 1.067
303.15 K | 0.825 | 0.837 | 0.867 | 0.895 | 0.924 | 0.95
308.15 K | 0.743 | 0.754 | 0.781 | 0.806 | 0.831 | 0.854
313.15 K | 0.674 | 0.684 | 0.708 | 0.73 | 0.753 | 0.772

C[NH+]1CCCC1=O.O=S(=O)([O-])c1ccccc1 + O
viscosity [mPa·s]
Conditions | 293.15 K | 298.15 K | 303.15 K | 308.15 K
100 kPa, x1 = 0.001798 | 1.074 | 0.9472 | 0.8439 | 0.7688
100 kPa, x1 = 0.003606 | 1.137 | – | 0.8882 | 0.8029
100 kPa, x1 = 0.005372 | 1.198 | 1.053 | 0.9316 | –
100 kPa, x1 = 0.008042 | 1.285 | – | 0.998 | 0.8943
100 kPa, x1 = 0.01069 | 1.372 | 1.206 | – | 0.9518
100 kPa, x1 = 0.01421 | 1.491 | – | – | –
100 kPa, x1 = 0.02115 | 1.749 | – | – | –
100 kPa, x1 = 0.02631 | 1.971 | 1.746 | 1.541 | 1.369
100 kPa, x1 = 0.03141 | 2.217 | 1.963 | 1.737 | 1.527
101 kPa, x1 = 0.005347 | – | 1.055 | – | –
101 kPa, x1 = 0.01545 | – | – | 1.185 | –

O=C([O-])CC(O)(CC(=O)[O-])C(=O)[O-].[NH3+]CCO.[NH3+]CCO.[NH3+]CCO + O
viscosity [mPa·s], 101 kPa
Conditions | x1 = 0.0053 | x1 = 0.012 | x1 = 0.02 | x1 = 0.031 | x1 = 0.046 | x1 = 0.067 | x1 = 0.16
293.15 K | 1.211 | 1.575 | 2.21 | 3.385 | 6.303 | 12.36 | 106.7
303.15 K | 0.9345 | 1.18 | 1.608 | 2.382 | 4.312 | 8.015 | 66.19
313.15 K | 0.7529 | 0.9296 | 1.227 | 1.786 | 3.032 | 5.371 | 39.23
323.15 K | 0.6242 | 0.7501 | 0.9638 | 1.351 | 2.228 | 3.77 | 21.96

OCCOCCOCCOCCOCCOCCOCCOCCOCCO + O
viscosity [mPa·s], 100 kPa
Conditions | 293.15 K | 298.15 K | 303.15 K | 308.15 K | 313.15 K | 318.15 K | 323.15 K
x2 = 0.093 | 124.5 | 93.99 | 72.59 | 57.45 | 46.04 | 37.51 | 30.97
x2 = 0.12 | 121.6 | 92.08 | 71.18 | 56.4 | 45.22 | 36.83 | 30.41
x2 = 0.187 | 120.7 | 91.49 | 70.11 | 55.25 | 44.27 | 36.03 | 29.76
x2 = 0.256 | 117.4 | 88.73 | 68.34 | 54.28 | 43.47 | 35.36 | 29.19

From the CheMixHub viscosity set
